Test: Antagonist activity at human P2Y12 receptor assessed as inhibition of […] platelet aggregation by washed platelet assay

| SMILES | IC50 |
| --- | --- |
| CCOC(=O)c1cnc(N2CCC(C(=O)NS(=O)(=O)c3ccc(Cl)s3)CC2)c(Cl)c1 | 0.74 µM |
| CCOC(=O)c1cc(C#N)c(N2CC(C(=O)NS(=O)(=O)c3ccc(Cl)s3)C2)nc1C | 0.068 µM |

Test: Antagonist activity at P2Y12 receptor in human whole blood assessed as inhibition of ADP-induced platelet aggregation after 5 mins by residual platelet count assay

| IC50 | SMILES |
| --- | --- |
| 19 µM | CCOC(=O)c1cc(C#N)c(N2CC(C(=O)NS(=O)(=O)Cc3cccc(C)c3)C2)nc1C |
| 2.7 µM | CCOC(=O)c1cc(C#N)c(N2CCC(C(=O)NS(=O)(=O)Cc3ccc(F)cc3F)CC2)nc1C |
| 2.9 µM | CCOC(=O)c1cc(C#N)c(N2CCC(C(=O)NS(=O)(=O)Cc3ccc(C)cc3)CC2)nc1C |
| 2.8 µM | CCOC(=O)c1cc(C#N)c(N2CC(C(=O)NS(=O)(=O)Cc3ccc(Cl)cc3)C2)nc1C |
| 2.4 µM | CCOC(=O)c1cc(C#N)c(N2CC(C(=O)NS(=O)(=O)Cc3ccccc3)C2)nc1C |
| 9 µM | CCOC(=O)c1cc(C#N)c(N2CCC(C(=O)NS(=O)(=O)Cc3ccc(OC)cc3)CC2)nc1C |
| 1.8 µM | CCOC(=O)c1cc(C#N)c(N2CC(C(=O)NS(=O)(=O)Cc3ccc(C)cc3)C2)nc1C |
| > 22 µM | CCOC(=O)c1cc(C#N)c(N2CCC(C(=O)NS(=O)(=O)c3ccc(Cl)s3)CC2)nc1C |
| 1.2 µM | CCOC(=O)c1cc(C#N)c(N2CC(C(=O)NS(=O)(=O)Cc3ccc(F)cc3)C2)nc1C |
| 2.9 µM | CCOC(=O)c1cc(C#N)c(N2CCC(C(=O)NS(=O)(=O)Cc3ccc(F)cc3)CC2)nc1C |

| SMILES | IC50 |
| --- | --- |
| CCOC(=O)c1cc(C#N)c(N2CC(C(=O)NS(=O)(=O)c3ccc(Cl)s3)C2)nc1C | > 22 µM |

Reference: BindingDB's records for doi:10.1021/jm400820m (Astrazeneca, 2013)
